Data: patent US6790867B2, “Compositions and method for treating infection in cattle and swine” (Schering-Plough Animal Health Corporation, priority 2002, dated 2004)

Test: in vivo
Design: species or system cattle
Conditions: both sexes, bovine, 2.2 mg/kg
Protocol: In a second study, the pharmacokinetic profile of the second active component in Formulation 1A, flunixin, was examined. The pharmacokinetic profile of flunixin was evaluated following administration to cattle as the approved single entity flunixin meglumine product, […], and as the combination product Formulation 1A. This study was conducted in four phases using six cattle (3 males, 3 females). All animals received […] intravenously (IV) in the first phase. This was followed, after a washout period, by the administration of […] intramuscularly (IM) to 3 cows and […] subcutaneously (SQ) to 3 cows. In the next phase the animals were crossed over and received […] or SQ. In the final phase, all six cattle received the flunixin/florfenicol combination product (Formulation 1A). All animals received flunixin at a dose of 2.2 mg/kg, regardless of the formulation or route of administration. Blood samples for determination of flunixin concentration were collected at 0, 0.17, 0.5, 0.75, 1, 2, 3, 4, 6, 8, 12 and 24 hours after dosing. At the final phase of the study, the 6 cattle were given Formulation 1A at a dose of 10 mL per 75 kg SQ (equivalent to 40 mg/kg of florfenicol and 2.2 mg/kg of flunixin). The kinetics of flunixin when administered as Formulation 1A are different from the kinetics of flunixin when administered as […]. As such, the clinical dose response of Formulation 1A were ascertained in a subsequent study (described below).

Cc1c(Nc2ncccc2C(=O)O)cccc1C(F)(F)F [Flunixin, flunixin meglumine]
AUC(0-inf) (im): 10500 ng·h/mL
Cmax (im): 3240 ng/mL
Tmax (im): 30.6 min
AUC(0-inf) (iv): 13600 ng·h/mL
AUC(0-inf) (sc): 10900 ng·h/mL
Cmax (sc): 2860 ng/mL
Tmax (sc): 32.4 min
